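Interpolation was linear, between the two tested concentrations surrounding the appropriate level; five concentrations were tested over 48 hours in 96-well plates. TGI marks complete inhibition of growth.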
Legend:
Assay in all cases: DTP human tumour cell line panel, 48 h
UACC-62 melanoma = system: UACC-62 melanoma
HCT-116 colon = system: HCT-116 colon
SF-268 CNS = system: SF-268 CNS
OVCAR-5 ovarian = system: OVCAR-5 ovarian
A549 NSCLC = system: A549 NSCLC
KM12 colon = system: KM12 colon
SNB-75 CNS = system: SNB-75 CNS
SK-MEL-2 melanoma = system: SK-MEL-2 melanoma
RXF-631 renal = system: RXF-631 renal
NCI-H522 lung = system: NCI-H522 lung
SK-MEL-28 melanoma = system: SK-MEL-28 melanoma
HOP-92 NSCLC = system: HOP-92 NSCLC
CCRF-CEM leukemia = system: CCRF-CEM leukemia
UACC-257 melanoma = system: UACC-257 melanoma
M14 melanoma = system: M14 melanoma
786-0 renal = system: 786-0 renal
MALME-3M melanoma = system: MALME-3M melanoma
SNB-19 CNS = system: SNB-19 CNS
UO-31 renal = system: UO-31 renal
SW-620 colon = system: SW-620 colon
U251 CNS = system: U251 CNS
NCI-H460 lung = system: NCI-H460 lung
OVCAR-4 ovarian = system: OVCAR-4 ovarian
ACHN renal = system: ACHN renal
COLO 205 colon = system: COLO 205 colon
XF 498 CNS = system: XF 498 CNS
IGROV1 ovarian = system: IGROV1 ovarian
NCI-H23 lung = system: NCI-H23 lung
HOP-18 NSCLC = system: HOP-18 NSCLC
M19-MEL melanoma = system: M19-MEL melanoma
HCT-15 colon = system: HCT-15 colon
LXFL 529 NSCLC = system: LXFL 529 NSCLC
SN12C renal = system: SN12C renal
DMS 114 small cell lung = system: DMS 114 small cell lung
EKVX NSCLC = system: EKVX NSCLC
TK-10 renal = system: TK-10 renal
LOX IMVI melanoma = system: LOX IMVI melanoma
OVCAR-3 ovarian = system: OVCAR-3 ovarian
A498 renal = system: A498 renal
MOLT-4 leukemia = system: MOLT-4 leukemia
OVCAR-8 ovarian = system: OVCAR-8 ovarian
SK-MEL-5 melanoma = system: SK-MEL-5 melanoma
NCI-H226 lung = system: NCI-H226 lung
SNB-78 CNS = system: SNB-78 CNS
HT29 colon = system: HT29 colon
DMS 273 small cell lung = system: DMS 273 small cell lung
SK-OV-3 ovarian = system: SK-OV-3 ovarian
SF-539 CNS = system: SF-539 CNS
K-562 leukemia = system: K-562 leukemia
KM20L2 colon = system: KM20L2 colon
RPMI-8226 leukemia = system: RPMI-8226 leukemia
SF-295 CNS = system: SF-295 CNS
RXF 393 renal = system: RXF 393 renal
CAKI-1 renal = system: CAKI-1 renal
DLD-1 colon = system: DLD-1 colon
HCC-2998 colon = system: HCC-2998 colon
HL-60(TB) leukemia = system: HL-60(TB) leukemia
SR leukemia = system: SR leukemia
HOP-62 NSCLC = system: HOP-62 NSCLC

CC1(C)OCC[C@@H]1[Si](C)(C)C
TGI (UACC-62 melanoma): > 100 µM
TGI (HCT-116 colon): > 100 µM
TGI (SF-268 CNS): > 100 µM
TGI (OVCAR-5 ovarian): > 100 µM
TGI (A549 NSCLC): > 100 µM
TGI (KM12 colon): > 100 µM
TGI (SNB-75 CNS): > 100 µM
TGI (SK-MEL-2 melanoma): > 100 µM
TGI (RXF-631 renal): > 100 µM
TGI (NCI-H522 lung): 61 µM
TGI (SK-MEL-28 melanoma): > 100 µM
TGI (HOP-92 NSCLC): > 100 µM
TGI (CCRF-CEM leukemia): > 100 µM
TGI (UACC-257 melanoma): > 100 µM
TGI (M14 melanoma): > 100 µM
TGI (786-0 renal): > 100 µM
TGI (MALME-3M melanoma): > 100 µM
TGI (SNB-19 CNS): > 100 µM
TGI (UO-31 renal): > 100 µM
TGI (SW-620 colon): > 100 µM
TGI (U251 CNS): > 100 µM
TGI (NCI-H460 lung): > 100 µM
TGI (OVCAR-4 ovarian): > 100 µM
TGI (ACHN renal): > 100 µM
TGI (COLO 205 colon): > 100 µM
TGI (XF 498 CNS): > 100 µM
TGI (IGROV1 ovarian): > 100 µM
TGI (NCI-H23 lung): > 100 µM
TGI (HOP-18 NSCLC): > 100 µM
TGI (M19-MEL melanoma): > 100 µM
TGI (HCT-15 colon): > 100 µM
TGI (LXFL 529 NSCLC): > 100 µM
TGI (SN12C renal): > 100 µM
TGI (DMS 114 small cell lung): > 100 µM
TGI (EKVX NSCLC): > 100 µM
TGI (TK-10 renal): > 100 µM
TGI (LOX IMVI melanoma): > 100 µM
TGI (OVCAR-3 ovarian): > 100 µM
TGI (A498 renal): > 100 µM
TGI (MOLT-4 leukemia): > 100 µM
TGI (OVCAR-8 ovarian): > 100 µM
TGI (SK-MEL-5 melanoma): > 100 µM
TGI (NCI-H226 lung): > 100 µM
TGI (SNB-78 CNS): > 100 µM
TGI (HT29 colon): > 100 µM
TGI (DMS 273 small cell lung): > 100 µM
TGI (SK-OV-3 ovarian): > 100 µM
TGI (SF-539 CNS): > 100 µM
TGI (K-562 leukemia): > 100 µM
TGI (KM20L2 colon): > 100 µM
TGI (RPMI-8226 leukemia): > 100 µM
TGI (SF-295 CNS): > 100 µM
TGI (RXF 393 renal): 89.8 µM

N#CC(C(=O)C(N)=O)c1ccccc1Cl (stereo not drawn)
TGI (UACC-62 melanoma): > 100 µM
TGI (HCT-116 colon): > 100 µM
TGI (SF-268 CNS): > 100 µM
TGI (OVCAR-5 ovarian): > 100 µM
TGI (A549 NSCLC): > 100 µM
TGI (KM12 colon): > 100 µM
TGI (SNB-75 CNS): > 100 µM
TGI (SK-MEL-2 melanoma): > 100 µM
TGI (RXF-631 renal): > 100 µM
TGI (SK-MEL-28 melanoma): > 100 µM
TGI (CCRF-CEM leukemia): > 100 µM
TGI (UACC-257 melanoma): > 100 µM
TGI (M14 melanoma): > 100 µM
TGI (786-0 renal): > 100 µM
TGI (MALME-3M melanoma): > 100 µM
TGI (SNB-19 CNS): > 100 µM
TGI (UO-31 renal): > 100 µM
TGI (SW-620 colon): > 100 µM
TGI (U251 CNS): > 100 µM
TGI (NCI-H460 lung): > 100 µM
TGI (OVCAR-4 ovarian): > 100 µM
TGI (ACHN renal): > 100 µM
TGI (CAKI-1 renal): > 100 µM
TGI (COLO 205 colon): > 100 µM
TGI (XF 498 CNS): > 100 µM
TGI (DLD-1 colon): > 100 µM
TGI (IGROV1 ovarian): > 100 µM
TGI (NCI-H23 lung): > 100 µM
TGI (HOP-18 NSCLC): > 100 µM
TGI (M19-MEL melanoma): > 100 µM
TGI (HCT-15 colon): > 100 µM
TGI (LXFL 529 NSCLC): > 100 µM
TGI (HCC-2998 colon): > 100 µM
TGI (SN12C renal): > 100 µM
TGI (DMS 114 small cell lung): > 100 µM
TGI (EKVX NSCLC): > 100 µM
TGI (TK-10 renal): > 100 µM
TGI (LOX IMVI melanoma): > 100 µM
TGI (OVCAR-3 ovarian): > 100 µM
TGI (A498 renal): > 100 µM
TGI (MOLT-4 leukemia): > 100 µM
TGI (OVCAR-8 ovarian): > 100 µM
TGI (SK-MEL-5 melanoma): > 100 µM
TGI (NCI-H226 lung): > 100 µM
TGI (HT29 colon): > 100 µM
TGI (DMS 273 small cell lung): > 100 µM
TGI (SK-OV-3 ovarian): > 100 µM
TGI (SF-539 CNS): > 100 µM
TGI (K-562 leukemia): > 100 µM
TGI (HL-60(TB) leukemia): > 100 µM
TGI (KM20L2 colon): > 100 µM
TGI (RPMI-8226 leukemia): > 100 µM
TGI (SF-295 CNS): > 100 µM
TGI (RXF 393 renal): > 100 µM

O=c1[nH]c(=O)n(C2CC(O)C(CO)O2)cc1/C=C/Br (stereo not drawn)
TGI (UACC-62 melanoma): > 100 µM
TGI (SF-268 CNS): > 100 µM
TGI (OVCAR-5 ovarian): > 100 µM
TGI (A549 NSCLC): > 100 µM
TGI (KM12 colon): > 100 µM
TGI (SK-MEL-2 melanoma): > 100 µM
TGI (RXF-631 renal): > 100 µM
TGI (NCI-H522 lung): > 100 µM
TGI (SK-MEL-28 melanoma): > 100 µM
TGI (HOP-92 NSCLC): > 100 µM
TGI (CCRF-CEM leukemia): > 100 µM
TGI (UACC-257 melanoma): > 100 µM
TGI (SR leukemia): > 100 µM
TGI (M14 melanoma): > 100 µM
TGI (786-0 renal): > 100 µM
TGI (MALME-3M melanoma): > 100 µM
TGI (SNB-19 CNS): > 100 µM
TGI (UO-31 renal): > 100 µM
TGI (SW-620 colon): > 100 µM
TGI (U251 CNS): > 100 µM
TGI (NCI-H460 lung): > 100 µM
TGI (OVCAR-4 ovarian): > 100 µM
TGI (ACHN renal): > 100 µM
TGI (CAKI-1 renal): > 100 µM
TGI (HOP-62 NSCLC): > 100 µM
TGI (XF 498 CNS): > 100 µM
TGI (DLD-1 colon): > 100 µM
TGI (IGROV1 ovarian): > 100 µM
TGI (NCI-H23 lung): > 100 µM
TGI (M19-MEL melanoma): > 100 µM
TGI (LXFL 529 NSCLC): > 100 µM
TGI (SN12C renal): > 100 µM
TGI (DMS 114 small cell lung): > 100 µM
TGI (EKVX NSCLC): > 100 µM
TGI (TK-10 renal): > 100 µM
TGI (LOX IMVI melanoma): > 100 µM
TGI (A498 renal): > 100 µM
TGI (MOLT-4 leukemia): > 100 µM
TGI (OVCAR-8 ovarian): > 100 µM
TGI (SK-MEL-5 melanoma): > 100 µM
TGI (NCI-H226 lung): > 100 µM
TGI (SNB-78 CNS): > 100 µM
TGI (HT29 colon): > 100 µM
TGI (DMS 273 small cell lung): > 100 µM
TGI (SK-OV-3 ovarian): > 100 µM
TGI (SF-539 CNS): > 100 µM
TGI (K-562 leukemia): > 100 µM
TGI (HL-60(TB) leukemia): > 100 µM
TGI (KM20L2 colon): > 100 µM
TGI (SF-295 CNS): > 100 µM
TGI (RXF 393 renal): > 100 µM

— PubChem BioAssay (NCI)
